Common to all, as to format: in vivo
In one assay the test system is Sphaerotheca fuliginea. Put plainly: Sphaerotheca test (cucumber)/protective. To be noted: Podosphaera fuliginea, 168 h, 500 ppm active substance, protective, evaluation 7 days after inoculation, read-out: degree of effectiveness. On the procedure: • Solvent: 49 parts by weight of N,N-dimethylformamide • Emulsifier: 1 part by weight of alkylaryl polyglycol ether (polyoxyethylene (16) tristearylphenyl ether) To prepare a suitable active substance composition, 1 part by weight of active substance is mixed with the given amounts of solvents and emulsifier and the concentrate is diluted to the desired concentration using water. For the testing of protective effectiveness, young cucumber plants are sprayed with the active substance composition in the application rate given. One day after treatment, the plants are inoculated with a suspension of spores of Sphaerotheca fuliginea. The plants are then placed in a greenhouse at 70% relative humidity and a temperature of 23° C. Evaluation is carried out 7 days after the inoculation. In this connection, 0% means a degree of effectiveness corresponding to that of the control, while a degree of effectiveness of 100% means that no infestation is observed.

Assay [1] has as its system Puccinia triticina. Briefly: Puccinia triticina test (wheat)/protective. The settings on record: 192 h, 500 ppm active substance, protective, evaluation 8 days after inoculation, read-out: degree of effectiveness. On the procedure:
(§1) • Solvent: 50 parts by weight of N,N-dimethylacetamide • Emulsifier: 1 part by weight of alkylaryl polyglycol ether (polyoxyethylene (16) tristearylphenyl ether)
(§2) To prepare a suitable active substance composition, 1 part by weight of active substance is mixed with the given amounts of solvent and emulsifier and the concentrate is diluted to the desired concentration using water.
For the testing of protective effectiveness, young plants are sprayed with the active substance composition in the application rate given. After the spray coating has been dried on, the plants are sprayed with a suspension of spores of Puccinia triticina. The plants remain in an incubation chamber at 20° C. and 100% relative humidity for 48 hours. The plants are placed in a greenhouse at a temperature of approximately 20° C. and a relative humidity of approximately 80%.
(§3) Evaluation is carried out 8 days after the inoculation. In this connection, 0% means a degree of effectiveness corresponding to that of the control, while a degree of effectiveness of 100% means that no infestation is observed.

In assay [2] the test system is Puccinia triticina. Put plainly: Puccinia triticina test (wheat)/curative. To be noted: 192 h, 500 ppm active substance, curative, evaluation 8 days after inoculation, read-out: degree of effectiveness. On the procedure:
as §1, §2
For the testing of curative effectiveness, young plants are sprayed with a suspension of spores of Puccinia triticina. The plants remain in an incubation chamber at 20° C. and 100% relative humidity for 48 hours and are then sprayed with the active substance composition in the application rate given. The plants are placed in a greenhouse at a temperature of approximately 20° C. and a relative humidity of approximately 80%.
as §3

Another assay concerns Alternaria solani. Put plainly: Alternaria test (tomato)/protective. The settings on record: 72 h, 100 ppm active substance, protective, evaluation 3 days after inoculation, read-out: degree of effectiveness. On the procedure:
• Solvents: 24.5 parts by weight of acetone • 24.5 parts by weight of dimethylacetamide • Emulsifier: 1 part by weight of alkylaryl polyglycol ether (polyoxyethylene (16) tristearylphenyl ether)
To prepare a suitable active substance composition, 1 part by weight of substance is mixed with the given amounts of solvents and emulsifier and the concentrate is diluted to the desired concentration using water.
For the testing of protective effectiveness, young plants are sprayed with the active substance composition in the application rate given. After the spray coating has been dried on, the plants are inoculated with an aqueous suspension of spores of Alternaria solani. The plants are then placed in an incubation chamber at approximately 20° C. and 100% relative humidity.
Evaluation is carried out 3 days after the inoculation. In this connection, 0% means a degree of effectiveness corresponding to that of the control, while a degree of effectiveness of 100% means that no infestation is observed.

Turning to `Cc1cc(/N=C/N2CCCCC2)c(Cl)cc1Oc1nc(C2(Cl)CC2)ns1` [Compound 5, 2-chloro-4-{[3-(1-chlorocyclopropyl)-1,2,4-thiadiazol-5-yl]oxy}-5-methyl-N-[(E)-piperidin-1-ylmethylidene]aniline], the pest or weed control at 500 ppm in the assay with Sphaerotheca fuliginea, in the assay on Puccinia triticina [1] and in the assay on Puccinia triticina [2] was no less than 70% each time.
With `CCN(C)/C=N/c1cc(C)c(Oc2nc(CCc3ccc(Cl)cc3)ns2)cc1Cl` [Compound 9, N′-[2-chloro-4-({3-[2-(4-chlorophenyl)ethyl]-1,2,4-thiadiazol-5-yl}oxy)-5-methylphenyl]-N-ethyl-N-methylimidoformamide], the pest or weed control at 500 ppm with Sphaerotheca fuliginea, with Puccinia triticina [1] and with Puccinia triticina [2] was no less than 70% each time.
In the case of `Cc1cc(N=CN(C)C(C)C)c(Cl)cc1Oc1nc([C@@H]2C[C@H]2c2ccccc2)ns1` (relative stereo) [Compound 31, rel-N′-[2-chloro-5-methyl-4-({3-[(1R,2R)-2-phenylcyclopropyl]-1,2,4-thiadiazol-5-yl}oxy)phenyl]-N-methyl-N-(propan-2-yl)imidoformamide], the pest or weed control at 500 ppm in the assay on Sphaerotheca fuliginea, in the assay on Puccinia triticina [1] and in the assay with Puccinia triticina [2] was no less than 70% in each case.
For the compound `Cc1cc(N=CN(C)C(C)C)c(Cl)cc1Oc1nc(C2(c3ccc(Cl)cc3)CC2)ns1` [Compound 20, N′-[2-chloro-4-({3-[1-(4-chlorophenyl)cyclopropyl]-1,2,4-thiadiazol-5-yl}oxy)-5-methylphenyl]-N-methyl-N-(propan-2-yl)imidoformamide], the pest or weed control at 500 ppm with Sphaerotheca fuliginea, in the assay on Puccinia triticina [1] and with Puccinia triticina [2] was no less than 70% throughout.
As for `Cc1cc(/N=C/N2CCCCC2)c(Cl)cc1Oc1nc(C(C)c2ccc(Cl)cc2)ns1` (stereo not shown) [Compound 7, 2-chloro-4-({3-[1-(4-chlorophenyl)ethyl]-1,2,4-thiadiazol-5-yl}oxy)-5-methyl-N-[(E)-piperidin-1-ylmethylidene]aniline], the pest or weed control at 500 ppm in the assay with Sphaerotheca fuliginea was no less than 70%.
For `Cc1cc(/N=C\N2CCCCC2)c(Cl)cc1Oc1nc(C(C)(C)c2ccc(Cl)cc2)ns1` [Compound 12, 2-chloro-4-({3-[2-(4-chlorophenyl)propan-2-yl]-1,2,4-thiadiazol-5-yl}oxy)-5-methyl-N-[(Z)-piperidin-1-ylmethylidene]aniline], the pest or weed control at 100 ppm in the assay with Alternaria solani was no less than 70%. Also, in the assay on Sphaerotheca fuliginea, the pest or weed control at 500 ppm is no less than 70%.
Take `CCN(C)/C=N/c1cc(C)c(Oc2nc(CCl)ns2)cc1Cl` [Compound 19, N′-(2-chloro-4-{[3-(chloromethyl)-1,2,4-thiadiazol-5-yl]oxy}-5-methylphenyl)-N-ethyl-N-methylimidoformamide]: the pest or weed control at 500 ppm in the assay with Puccinia triticina [2] was no less than 70%.
On to `Cc1cc(/N=C\N2CCCCC2)c(Cl)cc1Oc1nc(/C=C/c2ccc(F)cc2)ns1` [Compound 16, 2-chloro-4-({3-[(E)-2-(4-fluorophenyl)ethenyl]-1,2,4-thiadiazol-5-yl}oxy)-5-methyl-N-[(Z)-piperidin-1-ylmethylidene]aniline], for which the pest or weed control at 500 ppm in the assay on Sphaerotheca fuliginea was no less than 70%.
`Cc1cc(/N=C\N2CCCCC2)c(Cl)cc1Oc1nc(C2(c3ccc(Cl)cc3)CC2)ns1` [Compound 21, 2-chloro-4-({3-[1-(4-chlorophenyl)cyclopropyl]-1,2,4-thiadiazol-5-yl}oxy)-5-methyl-N-[(Z)-piperidin-1-ylmethylidene]aniline]: the pest or weed control at 500 ppm with Sphaerotheca fuliginea was no less than 70%.
Consider `CCN(C)/C=N/c1cc(C)c(Oc2nc(COc3ccccc3)ns2)cc1Cl` [Compound 37, N′-(2-chloro-5-methyl-4-{[3-(phenoxymethyl)-1,2,4-thiadiazol-5-yl]oxy}phenyl)-N-ethyl-N-methylimidoformamide], for which the pest or weed control at 500 ppm with Sphaerotheca fuliginea was no less than 70%.
As for `C=CCN(C)C=Nc1cc(C)c(Oc2nc(C(C)(C)C)ns2)cc1Cl` [Compound 25, N′-{4-[(3-(tert-butyl)-1,2,4-thiadiazol-5-yl)oxy]-2-chloro-5-methylphenyl}-N-methyl-N-(prop-2-en-1-yl)imidoformamide], the pest or weed control at 500 ppm in the assay on Sphaerotheca fuliginea, in the assay on Puccinia triticina [1] and with Puccinia triticina [2] was no less than 70% throughout.
Take `Cc1cc(N=CN(C)C(C)C)c(Cl)cc1Oc1nc(C2(Cl)CC2)ns1` [Compound 4, N′-(2-chloro-4-{[3-(1-chlorocyclopropyl)-1,2,4-thiadiazol-5-yl]oxy}-5-methylphenyl)-N-methyl-N-propan-2-ylimidoformamide]: the pest or weed control at 500 ppm with Sphaerotheca fuliginea, with Puccinia triticina [1] and with Puccinia triticina [2] was no less than 70% in each case.
Turning to `CCN(C)C=Nc1cc(C)c(Oc2nc([C@@H]3C[C@H]3c3ccccc3)ns2)cc1Cl` (relative stereo) [Compound 29, rel-N′-[2-chloro-5-methyl-4-({3-[(1R,2R)-2-phenylcyclopropyl]-1,2,4-thiadiazol-5-yl}oxy)phenyl]-N-ethyl-N-methylimidoformamide], the pest or weed control at 500 ppm in the assay on Sphaerotheca fuliginea, in the assay on Puccinia triticina [1] and with Puccinia triticina [2] was no less than 70% in each case.
For the compound `CCN(C)/C=N/c1cc(C)c(Oc2nc(COc3ccc(Cl)cc3)ns2)cc1Cl` [Compound 22, N′-[2-chloro-4-({3-[(4-chlorophenoxy)methyl]-1,2,4-thiadiazol-5-yl}oxy)-5-methylphenyl]-N-ethyl-N-methylimidoformamide], the pest or weed control at 500 ppm in the assay with Sphaerotheca fuliginea is no less than 70%.
As to `CCN(C)/C=N/c1cc(C)c(Oc2nc(COc3cccc(Cl)c3)ns2)cc1Cl` [Compound 35, N′-[2-chloro-4-({3-[(3-chlorophenoxy)methyl]-1,2,4-thiadiazol-5-yl}oxy)-5-methylphenyl]-N-ethyl-N-methylimidoformamide], the pest or weed control at 500 ppm in the assay with Sphaerotheca fuliginea, in the assay with Puccinia triticina [1] and in the assay on Puccinia triticina [2] was no less than 70% each time.
In the case of `CCN(C)/C=N/c1cc(C)c(Oc2nc(COc3ccccc3Cl)ns2)cc1Cl` [Compound 36, N′-[2-chloro-4-({3-[(2-chlorophenoxy)methyl]-1,2,4-thiadiazol-5-yl}oxy)-5-methylphenyl]-N-ethyl-N-methylimidoformamide], the pest or weed control at 500 ppm in the assay on Sphaerotheca fuliginea and with Puccinia triticina [2] was no less than 70% each time.
On to `CCN(C)C=Nc1cc(C)c(Oc2nc(Cc3cccc(C(F)(F)F)c3)ns2)cc1Cl` [Compound 34, N′-[2-chloro-5-methyl-4-({3-[3-(trifluoromethyl)benzyl]-1,2,4-thiadiazol-5-yl}oxy)phenyl]-N-ethyl-N-methylimidoformamide], for which the pest or weed control at 500 ppm with Sphaerotheca fuliginea, with Puccinia triticina [1] and in the assay on Puccinia triticina [2] was no less than 70% in each case.
Consider `CCN(C)/C=N/c1cc(C)c(Oc2nc(C(C)(C)Cc3ccccc3)ns2)cc1Cl` [Compound 28, N′-(2-chloro-5-methyl-4-{[3-(2-methyl-1-phenylpropan-2-yl)-1,2,4-thiadiazol-5-yl]oxy}phenyl)-N-ethyl-N-methylimidoformamide], for which the pest or weed control at 100 ppm in the assay on Alternaria solani is no less than 70%. Also, the pest or weed control at 500 ppm with Sphaerotheca fuliginea and in the assay with Puccinia triticina [1] was no less than 70% in each case.
Turning to `Cc1cc(N=CN(C)CC2CC2)c(Cl)cc1Oc1nc(C(C)(C)C)ns1` [Compound 26, N′-{4-[(3-(tert-butyl)-1,2,4-thiadiazol-5-yl)oxy]-2-chloro-5-methylphenyl}-N-(cyclopropylmethyl)-N-methylimidoformamide], the pest or weed control at 500 ppm in the assay on Sphaerotheca fuliginea, in the assay on Puccinia triticina [1] and with Puccinia triticina [2] was no less than 70% in each case.

For the origin of these results see US8334235B2, “Thiadiazolyloxyphenylamidines and use thereof as fungicides” (Bayer Cropscience AG, priority 2008, dated 2012).
